In assay [1] the test system is DC in organotypic cultures of HPV-transformed keratinocytes. Kind of assay: DC infiltration depth in organotypic cultures of HPV-transformed keratinocytes. Type of assay: cell-based, human. Conditions: 48 hours after chemoattractant addition; GM-CSF 800 U/ml, MCP-1 500 ng/ml, HNP2 750 ng/ml (FIG. 6A). The source says: (§1) DC were generated from the adherent fraction of human PBMC (Peripheral Blood Mononuclear Cells) with 800 U/ml GM-CSF (Novartis, Brussels) and 20 U/ml IL-4 (Biosource Europe, Nivelles, Belgium), as previously described (16). DC generated for this study constituted a 90% pure cell population based on several criteria including morphology, forward-scatter and side-scatter values observed by FACS (Fluorescence Activated Cell Sorter) analysis and surface phenotype (CD1a+, CD14−, CD4+, CD54+, . . . ).
Organotypic cultures of HPV-transformed keratinocytes (SiHa cell line (10)) were prepared as previously reported (17). After a 2 week stratification of keratinocytes, labeled DC were seeded on top of the in vitro formed epithelium at a concentration of 2×10^5 cells/50 μl of culture medium. The organotypic culture was then placed on the polycarbophil gel containing or not 800 U/ml of GM-CSF. In order to maintain the culture, the polycarbophil gel (1.5 w/w) was prepared by dispersing the Noveon AA1 in keratinocyte growth medium. […]
The density of DC migrating into the epithelial layer was assessed by the avidin-biotin-peroxidase technique (Vectastain ABC kit, Vector laboratories, Burlingame, Calif.) with an anti-CD1a monoclonal antibody (clone NA1/34 from Dako, Glostrup, Denmark). […] The DC infiltration in organotypic cultures was evaluated by measuring the surface of immunostained cells with a computerized system of image analysis (CAS, Becton Dickinson, Erembodegem, Belgium) following a method previously described (6). The entire surface of each culture section was analyzed and 5 sections of each culture were stained with anti-CD1a. The positive surface was expressed as the percentage of the total surface analyzed. In additional experiments, the LC/DC infiltration depth in the organotypic culturs was evaluated by measuring the distance between the top of the epithelium and individual DC with a computerized system of image analysis (CAS, Becton Dikinson, Erembodegem, Belgium). We then calculated the ratio between the infiltration depth and the thickness of the culture. […]

The subject of assay [2] is DC in organotypic cultures of HPV-transformed keratinocytes (SiHa cell line). Kind of assay: DC infiltration into organotypic cultures of HPV-transformed keratinocytes (CD1a labeled surface). Type of assay: cell-based, human. The following applies: 800 U/ml GM-CSF, 48 h.
Excerpt: as §1
The DC were labeled with a lipophilic fluorescent marker (CM-DiL, Molecular Probes, Leiden, The Netherlands) according to a previously described procedure with minor modifications. Briefly, 4×106 DC were resuspended in 1 ml of PBS and heated to 37° C. […]
The density of DC migrating into the epithelial layer was assessed by the avidin-biotin-peroxidase technique (Vectastain ABC kit, Vector laboratories, Burlingame, Calif.) with an anti-CD1a monoclonal antibody (clone NA1/34 from Dako, Glostrup, Denmark). […] The DC infiltration in organotypic cultures was evaluated by measuring the surface of immunostained cells with a computerized system of image analysis (CAS, Becton Dickinson, Erembodegem, Belgium) following a method previously described (6). The entire surface of each culture section was analyzed and 5 sections of each culture were stained with anti-CD1a. […]

In assay [3] the test system is human DC in xenografts of HPV-transformed keratinocytes (CasKi cell line). Kind of assay: Xenograft assay in NOD/SCID mice: DC recruitment into transplants of HPV-transformed keratinocytes. Type of assay: in vivo. Here is the method: HPV-transformed keratinocytes (2×10^5, CasKi cell line, ATCC, CRL-1550) were plated on collagen gel (2 mg/ml of type I collagen isolated from rat tail tendons) inserted in Teflon rings (Renner, Dannstadt, Germany) and maintained in culture for one day before transplantation onto mice. Twelve-week-old NOD-scid/scid mice were used for this study. They were housed under sterile conditions and water and feed were provided ad libitum. Before transplantation, the cells were washed and the medium was drained. […] Fluorescent DC were counted in the epithelium and, after anti-keratin immunolabeling, the epithelial surface was evaluated with a computerized system of image analysis (CAS, Becton Dickinson, Erembodegem, Belgium). Infiltration results were expressed as numbers of DC per mm^2 of epithelium. […]
Graft cryosections (5 μm in thickness) were fixed in acetone at −20° C. and in 80% methanol at 4° C. […] After washes in PBS, coverslips were mounted and labeling was analysed under an microscope equipped with epifluorescence optics.
A control group of mice was treated with PBS alone. […] The DC infiltration in transplants was assessed by looking for stained DC in histological sections. […] Quantitative analysis of DC infiltration was performed by determining the number of DC per mm2 of epithelial tissue.

Where no end group is shown, it is not given here.

For “Human Neutrophil Peptide-2 (CYCRIPACIAGERRYGTCIYQGRLWAFCC; ends and bridges not checked; cysteine pairing not given here; UniProt P59665 66-94, looked up) [HNP2, human neutrophil defensin 2, Sigma-Aldrich]”, in assay [1], the “DC infiltration depth in organotypic culture” value (from here on “DC infiltration depth”) was “reached an infiltration level equivalent to that obtained with GM-CSF”.
Regarding Monocyte Chemotactic Protein 1 [MCP1], the “DC infiltration depth” value in assay [1] was “reached an infiltration level equivalent to that obtained with GM-CSF”.
“granulocyte macrophage—colony stimulating factor [GM-CSF]”: in assay [2] (mean ± SD (n=5)), the “DC infiltration, CD1a labeled surface” value is listed as 28.33±8.11 % of CD1a labeled surface. Besides, in assay [2] (versus absence of GM-CSF (FIG. 4)), the “density of fluorescent-labeled DC within the epithelial sheet” value is “significant increase in the density of DC”. In assay [3] (GM-CSF applied in transplantation chamber versus control mice (FIG. 5)), the “recruitment of DC in the tumor grafts” value is reported as “significant (p<0.001) recruitment of DC”. In addition, in assay [3] (NOD-SCID mice, 200 μl injected twice into transplantation chamber, 4×10^5 U/ml or U/g, mean ± SD (n=5)), the “DC infiltration in the grafts, number of DC per mm2 of epithelial tissue” value was found to be 16.6±14.6 DC/mm2. The “DC infiltration depth” value in assay [1] is listed as “significant increase in the density of DC observed in the epithelial layer”.

These data come from patent US20060228417A1, “Mucoadhesive composition comprising polyacrylate and chemoattractant” (priority 2003, published 2006).
